Key:
[1] = test system: isolierte Kaninchenaortastreifen; experiment: Contractile effect on isolated rabbit aorta strips, dose-response compared with PGF2α (method of J.R. Vane); set-up: species or system Kaninchen; conditions: isolated rabbit aorta strip
Excerpt: Zum Beispiel wurde die kontrahierende Wirkung von (15R)-12-epi-PGF2ß an einem isolierten Kaninchenaortastreifen mit der des natürlichen PGF2α verglichen. […] Die Wirkung dieser erfindungsgemäßen Verbindung setzt bei etwa 3-10^-6M/lein (vgl. Abb. 1). In dieser Konzentration ist das (15-S)-Epimere des 12 epi-PGF2ßunwirksam. [drawing]
Abb. 1 Kontraktile Wirkung von (15R)-12-epi-PGF2β (x) und PGF2α (.) auf isolierte Kaninchenaortastreifen in Abhängigkeit von der Dosis. (c = Konzentration; K = Kontraktionskraft) (Gemessen nach: J.R. Vane, Br.J. Pharmacol. Chemother. 23, 360-373 (1964)).

[2] = test system: Langendorff-Herz; isolierte Aorta - Tracheen- und Fundus-Streifen; Kreislauf von Meerschweinchen und Hund; experiment: Battery of further pharmacological tests compared with PGF2α: Langendorff heart (coronary flow, heart rate, inotropy); isolated aorta, trachea and fundus strips; circulation of guinea pig and dog (blood pressure, heart rate); conditions: in all tests of the battery, compared with natural PGF2α
Excerpt: In mehreren anderen Tests wurden (15R)- und (15S)-12-epi-PGF2ß sowie die beiden analogen erfindungsgemäßen 15-Mithylverbindungen mit dem bekannten PGF2α verßlichen. […] Die 15-Methyl-Derivate der 12-epi-PGF2β zeigen analoge Unterschiede der Wirkungsqualität der jeweiligen 15Rund l5S-Epimeren.

SMILES	kontrahierende Wirkung ([1]; at the concentration of about 3-10^-6M/l)	Wirkungsqualität [2]	Wirkungsstärke (kontrahierende Wirkung) im Vergleich zu PGF2α ([1]; dose-response curve runs parallel to that of PGF2α)	minimal effective concentration ([1]; threshold concentration of the contractile effect (Abb. 1), read-out: Konzentration, bei der die kontrahierende Wirkung einsetzt) [µM]
CCCCC[C@H](O)/C=C/[C@H]1[C@@H](C/C=C\CCCC(=O)O)[C@H](O)C[C@H]1O [(15S)-12-epi-PGF2β, 12-epi-PGF2β]	unwirksam	PGE2-ähnliche Wirkung		
CCCCC[C@@H](O)/C=C/[C@H]1[C@@H](C/C=C\CCCC(=O)O)[C@H](O)C[C@H]1O [(15R)-12-epi-PGF2β, 15R-12-epi-PGF2β]		parallel zu den Wirkungen des natürlichen PGF2α	ca. eine Zehnerpotenz niedrigeren Wirkungsstärke	~3
